Patent US20110236897A1, “NOVEL MARKERS FOR […] DISEASE CAUSED BY BRAIN INJURY AND USE THEREOF” (priority 2010, published 2011)
Entries after “also recorded” stand apart in the source; their conditions may differ.

Tested on: cerebral cortex of F1 C57BL/6N mice
Experiment: Microarray expression profiling of F1 cerebral cortex after prenatal exposure to MDMA
[1] = F1 female, prenatal MDMA 20 mg/kg/day vs vehicle
[2] = F1 male, prenatal MDMA 20 mg/kg/day vs vehicle
[3] = common to F1 females and males, cerebral cortex, compared with control group, hydrochloride

For `CNC(C)Cc1ccc2c(c1)OCO2` (racemic) [MDMA], the “differentially expressed genes after prenatal exposure to MDMA (female group)” value (F1 female cerebral cortex at 11 weeks, dams 20 mg/kg/day p.o. GD 6 to PND 21, vs vehicle, Welch's T-test P<0.05, 1.5 fold change cut-off) was 1,784 genes, the “genes under-expressed in the female cerebral cortex” value [1] was 399 genes and the “genes up-regulated (over-expressed) in the female cerebral cortex” value [1] was 1,385 genes. For the same compound, the “differentially expressed genes after prenatal exposure to MDMA (male group)” value (F1 male cerebral cortex at 11 weeks, dams 20 mg/kg/day p.o. GD 6 to PND 21, vs vehicle, Welch's T-test P<0.05, 1.5 fold change cut-off) was 804 genes, the “genes under-expressed in the male cerebral cortex” value [2] was 469 genes and the “genes up-regulated in the male cerebral cortex” value [2] was 335 genes. The “common genes selected from the differentially expressed genes of females and males” value (common to 1,784 genes of females and 804 genes of males) was 90 genes, the “Expression change of the 1st to 36th genes of the 90 common genes” value [3] was “reduced; also recorded: down-” and the “Expression change of the 37th to 90th genes of the 90 common genes” value [3] was “up-”. For the same compound, the “effect on transcriptomic configuration of the cerebral cortex among offspring” value (maternal ingestion during pregnancy and lactation, F1 generation, hydrochloride) was “considerably affected; also recorded: this change was permanent”.
